Legend:
rat α7 nAChRs = biological target: T1, rat α7 nAChRs (Rattus norvegicus, UniProt Q05941); assay: Automated planar patch clamp (Patchliner) for α7 nAChR positive allosteric modulation; format: cell-based; parameters: key to Type I or Type II: I: Type 1 predominately affects the peak current; Type II modulators affect the peak current and also delay the desensitization of the receptor; conditions: for activation at 3 µM: GH4-C1, 3 μM compound in the presence of acetylcholine, GH4C1 cells expressing rat α7 nAChRs, relative to control ACh response, read-out: Peak potentiation at 3 μM compound; for Type I or Type II: modulator type based on the electrophysiology trace
T1 construct: expressed in transfected cells; host or cells: GH4C1 (rat pituitary cell line) stably expressing α7 nAChR
T1 sequence (Q05941 23-502): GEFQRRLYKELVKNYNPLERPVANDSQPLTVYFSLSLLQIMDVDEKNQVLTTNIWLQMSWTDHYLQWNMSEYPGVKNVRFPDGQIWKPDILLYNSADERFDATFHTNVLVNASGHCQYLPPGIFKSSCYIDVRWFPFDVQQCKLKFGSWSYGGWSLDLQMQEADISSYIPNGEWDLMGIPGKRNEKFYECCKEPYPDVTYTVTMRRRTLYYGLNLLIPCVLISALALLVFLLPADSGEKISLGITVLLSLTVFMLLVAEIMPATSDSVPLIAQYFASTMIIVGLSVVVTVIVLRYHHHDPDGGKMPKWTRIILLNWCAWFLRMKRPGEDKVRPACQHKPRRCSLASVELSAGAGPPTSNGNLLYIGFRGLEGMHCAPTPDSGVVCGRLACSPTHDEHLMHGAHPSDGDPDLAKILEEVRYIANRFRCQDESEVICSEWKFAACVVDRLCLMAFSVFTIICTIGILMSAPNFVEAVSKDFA
Procedure: Compounds of the invention may be evaluated by electrophysiology using a Patchliner® (Nanion Technologies GmbH, Germany), an automated planar patch-clamp platform of medium throughput was used as a first step in electrophysiological assessment of α7 nAChR positive allosteric modulators (PAMs).
Briefly, intracellular (KCl—50 mM, NaCl—10 mM, KF—60 mM, EGTA—20 mM, HEPES—10 mM, pH—7.2, 285 mOsmol) and extracellular (NaCl—140 mM, KCl—4 mM, CaCl2-2 mM, MgCl2—1 mM, HEPES—10 mM, D-Glucose—5 mM, pH—7.4, 298 mOsmol) solutions were automatically pipetted onto NPC-16 chip (medium resistance ˜2.5-2.6 MΩ). Suspension of GH4C1 cells expressing rat α7 nAChRs was introduced in 4 wells of a medium resistance chip and suction was applied to attract cells in the holes. The extracellular solution was subsequently exchanged to high calcium solution (NaCl—80 mM, KCl—3 mM, CaCl2—45 mM, HEPES—10 mM, pH—7.4, 298 mOsmol) followed by gigaohm seal formation and obtaining whole-cell configuration. The rest of protocol was carried out in the high-calcium recording solution. Holding potential was −70 mV throughout the protocol. A control response to 60 or 100 μM of ACh was obtained first. Next, a cell was pre-incubated with compound of interest at 3 μM for ˜30 s after which the compound was co-applied with acetylcholine.
Amplitude of the responses was measured in HEKA Patchmaster software (HEKA Elektronik, Germany) and percentage of potentiation calculated. Recording was repeated […] a minimum of two replicates had been obtained per compound.
Compounds shown in Table 1 were evaluated by automated planar patch clamp on the Patchliner® as described in Example P2.1. […] The compounds are designated either as Type I or Type II modulators based on the electrophysiology trace. Type 1 predominately affects the peak current. Type II modulators affect the peak current and also delay the desensitization of the receptor.

mice = assay: T-maze Continuous Alternation Task (T-CAT), scopolamine-induced cognitive impairment; format: in vivo; conditions: mouse, dosed orally at 10 mg/kg, scopolamine-induced disruption of spontaneous alternation
Excerpt: The T-maze Continuous Alternation Task (T-CAT) measures spontaneous alternation, which is the innate tendency of mice to alternate free choices in a T-maze over a series of successive runs. This sequential procedure relies on working memory and is sensitive to various pharmacological manipulations affecting memory processes.
The T-maze apparatus is made of gray Plexiglas with a main stem (55 cm long×10 cm wide×25 cm high) and two arms (30 cm long×10 cm wide×25 cm high) positioned at 90 degree angle relative to the main stem. A start box (15 cm long×10 cm wide) is separated from the main stem by a sliding door. Sliding doors are also provided to close specific arms during the forced-choice alternation task.
The experimental protocol consists of one single session, which starts with 1 “forced-choice” trial, followed by 14 “free-choice” trials. In the first “forced-choice” trial, the animal is confined for 5 s in the start arm and then it is released while either the left or right goal arm is blocked by a sliding door. The animal will negotiate the maze, eventually enter the open goal arm, and return to the start position. Immediately after the return to the start position, the left or right goal door is opened and the animal is allowed to choose freely between the left and right goal arm (“free choice” trials). The animal is considered to have entered an arm when it places four paws in the arm. A session is terminated and the animal is removed from the maze as soon as 14 free-choice trials have been performed or 10 minutes have elapsed, whichever event occurs first. The percentage of alternation over the 14 free-choice trials is determined for each mouse and is used as an index of working memory performance. This percentage is defined as entry in a different arm of the T-maze over successive visits (i.e., left-right-left-right, etc).
Scopolamine administered 20 minutes prior the initiation of the T-maze session is used to induce disruption in the spontaneous alternation of mice. Test compounds are administered 60 minutes prior the start of the T-maze session in order to evaluate their ability to reverse the scopolamine effect.
The apparatus is cleaned between each animal using alcohol (70°). Urine and faeces are removed from the maze. During the trials, animal handling and the visibility of the operator are minimized as much as possible.
The compounds were dosed orally at 10 mg/kg.

SMILES	activation at 3 µM (rat α7 nAChRs) [%]	Type I or Type II (rat α7 nAChRs)	T-maze % control at 10 mg/kg (mice) [%]
Cn1cc(-c2ccc3c(c2)c(C(=O)Nc2ccnc(C(F)(F)F)c2)cn3C)cn1 [Example 11, 1-methyl-5-(1-methyl-1H-pyrazol-4-yl)-N-[2-(trifluoromethyl)pyridin-4-yl]-1H-indole-3-carboxamide]	78	I	
CCn1cc(C(=O)Nc2cncc(F)c2)c2cc(F)ccc21 [Example 1, 1-ethyl-5-fluoro-N-(5-fluoropyridin-3-yl)-1H-indole-3-carboxamide]		I	70
Cn1cc(C(=O)Nc2ccnc(C(F)(F)F)c2)c2cc(F)ccc21 [Example 5, 5-fluoro-1-methyl-N-[2-(trifluoromethyl)pyridin-4-yl]-1H-indole-3-carboxamide]	326	I	78
Cc1ccc2c(c1)c(C(=O)Nc1ccnc(C(F)(F)F)c1)cn2C [Example 7, 1,5-dimethyl-N-[2-(trifluoromethyl)pyridin-4-yl]-1H-indole-3-carboxamide]	663	I	80
O=C(Nc1ccnc(C(F)(F)F)c1)c1cn(CCO)c2ccc(F)cc12 [Example 12, 5-fluoro-1-(2-hydroxyethyl)-N-[2-(trifluoromethyl)pyridin-4-yl]-1H-indole-3-carboxamide]	257	I	
CC(C)n1cc(C(=O)Nc2cncc(F)c2)c2cc(F)ccc21 [Example 6, 5-fluoro-N-(5-fluoropyridin-3-yl)-1-(propan-2-yl)-1H-indole-3-carboxamide]	374	I	
Cn1cc(C(=O)Nc2cncc(F)c2)c2cc(C(F)(F)F)ccc21 [Example 10, N-(5-fluoropyridin-3-yl)-1-methyl-5-(trifluoromethyl)-1H-indole-3-carboxamide]	41	I	
CCn1cc(C(=O)Nc2ccnc(C(F)(F)F)n2)c2cc(F)ccc21 [Example 4, 1-ethyl-5-fluoro-N-[2-(trifluoromethyl)pyrimidin-4-yl]-1H-indole-3-carboxamide]	30	I	
Cc1ccc2c(c1)c(C(=O)Nc1cc(C(F)(F)F)ncn1)cn2C [Example 8, 1,5-dimethyl-N-[6-(trifluoromethyl)pyrimidin-4-yl]-1H-indole-3-carboxamide]	428	I	
CCn1cc(C(=O)Nc2cc(C(F)(F)F)ncn2)c2cc(F)ccc21 [Example 2, 1-ethyl-5-fluoro-N-[6-(trifluoromethyl)pyrimidin-4-yl]-1H-indole-3-carboxamide]		I	76
Cn1cc(C(=O)Nc2ccnc(C(F)(F)F)c2)c2cc(C(F)(F)F)ccc21 [Example 9, 1-methyl-5-(trifluoromethyl)-N-[2-(trifluoromethyl)pyridin-4-yl]-1H-indole-3-carboxamide]	83	I	
CCn1cc(C(=O)Nc2ccc(C(F)(F)F)nc2)c2cc(F)ccc21 [Example 3, 1-ethyl-5-fluoro-N-[6-(trifluoromethyl)pyridin-3-yl]-1H-indole-3-carboxamide]			73

Source: patent US9593096B2, “α7 nicotinic acetylcholine receptor modulators and uses thereof-III” (Merck Sharp & Dohme Corp., priority 2013, dated 2017)
